These are literature values, as cited in US20190216738A1, “PIRFENIDONE-CONTAINING TABLET AND CAPSULE FORMULATION” (Laurus Labs Ltd, priority 2018, published 2019).

On to `Cc1ccc(=O)n(-c2ccccc2)c1` [Pirfenidone], for which the solubility entry (1.0 N HCl, water and 1.0 N NaOH) is recorded as “sparingly soluble”. The “dissolution in water (solubility)” value (water, 25° C., pH independent) is 19 mg/mL.
